SMILES strings stand for the structures.

The term IC50 denotes the concentration that inhibits the measured activity by half. Read a low IC50 as greater potency.

This assay addresses T1, ZAP-70 (Homo sapiens, UniProt P43403).
T1 construct: endogenous in cells; host or cells: cell lysate
T1 sequence (P43403 1-619): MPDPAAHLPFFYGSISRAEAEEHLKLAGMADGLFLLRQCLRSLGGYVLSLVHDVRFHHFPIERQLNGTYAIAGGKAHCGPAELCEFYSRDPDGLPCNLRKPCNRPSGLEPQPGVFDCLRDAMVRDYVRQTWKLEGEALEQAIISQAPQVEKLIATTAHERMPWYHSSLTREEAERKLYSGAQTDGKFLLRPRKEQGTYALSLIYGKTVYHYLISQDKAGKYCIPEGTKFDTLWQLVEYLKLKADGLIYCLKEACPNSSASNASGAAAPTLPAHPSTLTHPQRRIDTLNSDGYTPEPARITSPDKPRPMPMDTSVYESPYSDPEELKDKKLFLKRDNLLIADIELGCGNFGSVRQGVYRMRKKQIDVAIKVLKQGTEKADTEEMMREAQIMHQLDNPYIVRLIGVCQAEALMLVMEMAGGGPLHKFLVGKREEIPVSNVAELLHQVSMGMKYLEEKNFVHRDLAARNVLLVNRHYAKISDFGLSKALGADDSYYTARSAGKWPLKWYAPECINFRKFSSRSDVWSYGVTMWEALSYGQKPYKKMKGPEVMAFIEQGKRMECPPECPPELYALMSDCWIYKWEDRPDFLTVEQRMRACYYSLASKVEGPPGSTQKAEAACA
As to the kind of experiment: ZAP-70 kinobeads assay. The note with it: competition with immobilized aminopyrido-pyrimidine ligand 24 in cell lysate; ZAP-70 detected by dot blot. It counts as binding. The protocol: The compounds of the present invention as described in the previous examples can be tested in the ZAP-70 kinobeads assay as described (EP-A 1862802 and WO-A 2007/137867). Briefly, test compounds (at various concentrations) and the affinity matrix with the immobilized aminopyrido-pyrimidine ligand 24 are added to cell lysate aliquots and allowed to bind to the proteins in the lysate sample. After the incubation time the beads with captured proteins are separated from the lysate. Bound proteins are then eluted and the presence ZAP-70 is detected and quantified using a specific antibody in a dot blot procedure and the Odyssey infrared detection system. Conventionally, ZAP-70 kinase activity can be measured using purified or recombinant enzyme in a solution-based assay with protein or peptide substrates (Isakov et al., 1996, J. Biol. Chem. 271(26), 15753-15761; Moffat et al., 1999, Bioorg. Med. Chem. Letters 9, 3351-3356).
Take `CS(=O)(=O)Nc1ccccc1Nc1nc(Nc2cccc(F)c2)ncc1F` [Example 6, N-(2-(5-fluoro-2-(3-fluorophenylamino)pyrimidin-4-ylamino)phenyl)methanesulfonamide]: the IC50 lay within 1000 to 10000 nM.

Turning to `COc1cc(Nc2ncc(F)c(Nc3ccccc3NS(C)(=O)=O)n2)ccc1Cl` [Example 10, N-(2-(2-(4-chloro-3-methoxyphenylamino)-5-fluoropyrimidin-4-ylamino)phenyl)methanesulfonamide], the IC50 fell in the range of 1000 to 10000 nM. In the case of `CS(=O)(=O)Nc1ccccc1Nc1nc(Nc2cccc(Cl)c2)ncc1F` [Example 12, N-(2-(2-(3-chlorophenylamino)-5-fluoropyrimidin-4-ylamino)phenyl)methanesulfonamide], the IC50 was 1000 to 10000 nM. The result for `CCOc1cccc(Nc2ncc(F)c(Nc3ccccc3NS(C)(=O)=O)n2)c1` [Example 13, N-(2-(2-(3-ethoxyphenylamino)-5-fluoropyrimidin-4-ylamino)phenyl)methanesulfonamide] reads 1000 to 10000 nM; that for `CSc1cccc(Nc2ncc(F)c(Nc3ccccc3NS(C)(=O)=O)n2)c1` [Example 15, N-(2-(5-fluoro-2-(3-(methylthio)phenylamino)pyrimidin-4-ylamino)phenyl)methanesulfonamide], 1000 to 10000 nM; that for `CS(=O)(=O)Nc1ccccc1Nc1nc(Nc2cccc(-n3cccn3)c2)ncc1F` [Example 17, N-(2-(2-(3-(1H-pyrazol-1-yl)phenylamino)-5-fluoropyrimidin-4-ylamino)phenyl)methanesulfonamide], 1000 to 10000 nM. As for `COc1ccc(Nc2ncc(F)c(Nc3ccccc3NS(C)(=O)=O)n2)cc1Cl` [Example 19, N-(2-(2-(3-chloro-4-methoxyphenylamino)-5-fluoropyrimidin-4-ylamino)phenyl)methanesulfonamide], the IC50 was in the range of 1000 to 10000 nM. `CN1C(=O)COc2ccc(Nc3ncc(F)c(Nc4ccccc4NS(C)(=O)=O)n3)cc21` [Example 20, N-(2-(5-fluoro-2-(4-methyl-3-oxo-3,4-dihydro-2H-benzo[b][1,4]oxazin-6-ylamino)pyrimidin-4-ylamino)phenyl)methanesulfonamide] gave an IC50 of 1000 to 10000 nM. The result for `CS(=O)(=O)Nc1ccccc1Nc1nc(Nc2ccc3c(c2)OCC(=O)N3)ncc1F` [Example 23, N-(2-(5-fluoro-2-(3-oxo-3,4-dihydro-2H-benzo[b][1,4]oxazin-7-ylamino)pyrimidin-4-ylamino)phenyl)methanesulfonamide] reads 100 to 1000 nM. The result for `Cc1nnc(-c2cccc(Nc3ncc(F)c(Nc4ccccc4NS(C)(=O)=O)n3)c2)[nH]1` [Example 24, N-(2-(5-fluoro-2-(3-(5-methyl-4H-1,2,4-triazol-3-yl)phenylamino)pyrimidin-4-ylamino)phenyl)methanesulfonamide] reads 1000 to 10000 nM; that for `CS(=O)(=O)Nc1ccccc1Nc1nc(Nc2cccc(OC(F)F)c2)ncc1F` [Example 26, N-(2-(2-(3-(difluoromethoxy)phenylamino)-5-fluoropyrimidin-4-ylamino)phenyl)methanesulfonamide], 1000 to 10000 nM; that for `CS(=O)(=O)Nc1ccccc1Nc1nc(Nc2ccc(OC(F)F)cc2)ncc1F` [Example 27, N-(2-(2-(4-(difluoromethoxy)phenylamino)-5-fluoropyrimidin-4-ylamino)phenyl)methanesulfonamide], 1000 to 10000 nM. `CS(=O)(=O)Nc1ccccc1Nc1nc(Nc2ccc3nn[nH]c3c2)ncc1F` [Example 33, N-(2-(2-(1H-benzo[d][1,2,3]-triazol-6-ylamino)-5-fluoropyrimidin-4-ylamino)phenyl)methanesulfonamide] had an IC50 of 100 to 1000 nM. The value for `CS(=O)(=O)Nc1ccccc1Nc1nc(Nc2ccccc2)ncc1F` [Example 34, N-(2-(5-fluoro-2-(phenylamino)pyrimidin-4-ylamino)phenyl)methanesulfonamide] was 1000 to 10000 nM; that for `COc1cc(Nc2ncc(F)c(Nc3ccccc3NS(=O)(=O)c3ccccc3)n2)cc(OC)c1OC` [Example 47, N-(2-(5-fluoro-2-(3,4,5-trimethoxyphenylamino)pyrimidin-4-ylamino)phenyl)benzenesulfonamide] was 1000 to 10000 nM. In turn, `COc1cc(Nc2ncc(F)c(Nc3ccccc3NS(=O)(=O)c3cccnc3)n2)cc(OC)c1OC` [Example 52, N-(2-(5-fluoro-2-(3,4,5-trimethoxyphenylamino)pyrimidin-4-ylamino)phenyl)pyridine-3-sulfonamide] showed an IC50 of 1000 to 10000 nM. With `COc1cc(Nc2ncc(F)c(Nc3cccc(NS(=O)(=O)CC(F)(F)F)c3)n2)cc(OC)c1OC` [Example 60, 2,2,2-trifluoro-N-(3-(5-fluoro-2-(3,4,5-trimethoxyphenylamino)pyrimidin-4-ylamino)phenyl)ethanesulfonamide], the IC50 lay within 1000 to 10000 nM. With `COc1cc(Nc2ncc(F)c(Nc3ccccc3NS(=O)(=O)CCN(C)C)n2)cc(OC)c1OC` [Example 61, 2-(Dimethylamino)-N-(2-(5-fluoro-2-(3,4,5-trimethoxyphenylamino)pyrimidin-4-ylamino)phenyl)ethanesulfonamide], the 50% inhibitory concentration (IC50) fell in the range of 1000 to 10000 nM. The result for `COc1cc(Nc2ncc(F)c(Nc3cccc(NS(=O)(=O)CCN(C)C)c3)n2)cc(OC)c1OC` [Example 65, 2-(Dimethylamino)-N-(3-(5-fluoro-2-(3,4,5-trimethoxyphenylamino)pyrimidin-4-ylamino)phenyl)ethanesulfonamide] reads 1000 to 10000 nM; that for `COc1cc(Nc2ncc([N+](=O)[O-])c(Nc3ccccc3NS(C)(=O)=O)n2)cc(OC)c1OC` [Example 68, N-(2-(5-nitro-2-(3,4,5-trimethoxyphenylamino)pyrimidin-4-ylamino)phenyl)methanesulfonamide], 1000 to 10000 nM; that for `COc1cc(Nc2ncc(F)c(Nc3ccccc3N(C)S(C)(=O)=O)n2)cc(OC)c1OC` [Example 71, N-(2-(5-fluoro-2-(3,4,5-trimethoxyphenylamino)pyrimidin-4-ylamino)phenyl)-N-methylmethanesulfonamide], 100 to 1000 nM. Take `COc1cc(Nc2ncc(F)c(Nc3ccccc3NS(C)(=O)=O)n2)ccc1C` [Example 73, N-(2-(5-fluoro-2-(3-methoxy-4-methylphenylamino)pyrimidin-4-ylamino)phenyl)methanesulfonamide]: the IC50 was 100 to 1000 nM. The compound `COc1cc(Nc2ncc(F)c(Nc3ccccc3NS(C)(=O)=O)n2)cc(OCCN2CCCC2)c1OC` [Example 74, N-(2-(2-(3,4-dimethoxy-5-(2-(pyrrolidin-1-yl)ethoxy)phenylamino)-5-fluoropyrimidin-4-ylamino)phenyl)methanesulfonamide] displayed an IC50 of 100 to 1000 nM. Take `COc1cc(Nc2ncc(F)c(Nc3ccccc3NS(C)(=O)=O)n2)cc(OC)c1OCCN1CCCC1` [Example 75, N-(2-(2-(3,5-dimethoxy-4-(2-(pyrrolidin-1-yl)ethoxy)phenylamino)-5-fluoropyrimidin-4-ylamino)phenyl)methanesulfonamide]: the IC50 is < 100 nM.

As to `CNC(=O)c1cccc(Nc2ncc(F)c(Nc3ccccc3NS(C)(=O)=O)n2)c1` [Example 80, 3-(5-fluoro-4-(2-(methylsulfonamido)phenylamino)pyrimidin-2-ylamino)-N-methylbenzamide], the IC50 was 1000 to 10000 nM. Compound `CCN(CC)C(=O)c1cccc(Nc2ncc(F)c(Nc3ccccc3NS(C)(=O)=O)n2)c1` [Example 81, N,N-diethyl-3-(5-fluoro-4-(2-(methylsulfonamido)phenylamino)pyrimidin-2-ylamino)benzamide] returned an IC50 of 1000 to 10000 nM. `CS(=O)(=O)Nc1ccccc1Nc1nc(Nc2cccc(C(=O)N3CCCC3)c2)ncc1F` [Example 82, N-(2-(5-fluoro-2-(3-(pyrrolidine-1-carbonyl)phenylamino)pyrimidin-4-ylamino)phenyl)methanesulfonamide] registered an IC50 of 100 to 1000 nM. Compound `CS(=O)(=O)Nc1ccccc1Nc1nc(Nc2cccc(C(=O)NC3CC3)c2)ncc1F` [Example 83, N-cyclopropyl-3-(5-fluoro-4-(2-(methylsulfonamido)phenylamino)pyrimidin-2-ylamino)benzamide] showed an IC50 of 1000 to 10000 nM.

The compound `CN(C)C(=O)c1cccc(Nc2ncc(F)c(Nc3ccccc3NS(C)(=O)=O)n2)c1` [Example 84, 3-(5-fluoro-4-(2-(methylsulfonamido)phenylamino)pyrimidin-2-ylamino)-N,N-dimethylbenzamide] returned an IC50 of 100 to 1000 nM.

`CS(=O)(=O)Nc1ccccc1Nc1nc(Nc2cccc(N3CCCC3)c2)ncc1F` [Example 85, N-(2-(5-fluoro-2-(3-(pyrrolidin-1-yl)phenylamino)pyrimidin-4-ylamino)phenyl)methanesulfonamide]: the IC50 lay in the range of 1000 to 10000 nM.

Values taken from patent publication US20110098288A1, “SULFONAMIDES AS ZAP-70 INHIBITORS” (priority 2008, published 2011).
